From BigSolDB 2.1

Cc1nc2n(c(=O)c1CCN1CCC(c3noc4cc(F)ccc34)CC1)CCCC2
solubility (mole fraction)
Conditions	278.15 K	283.15 K	288.15 K	293.15 K	298.15 K	303.15 K	308.15 K	313.15 K
in acetone	0.000769	0.00111	0.00135	0.00166	0.00208	0.00251	0.00309	0.0039
in ethanol	0.000876	0.00107	0.00133	0.00156	0.00209	0.00259	0.00333	0.00427
in ethyl acetate	0.00113	0.00144	0.00165	0.00207	0.00248	0.00297	0.00373	0.00464
in isobutyl acetate	0.000791	0.00106	0.00129	0.0015	0.00183	0.00226	0.00266	0.0033
in isopropanol	0.00047	0.0006	0.000714	0.000853	0.00111	0.00134	0.00193	0.00271
in isopropyl acetate	0.000742	0.000884	0.00102	0.00125	0.0015	0.00186	0.00225	0.0027
in methanol	0.00204	0.00226	0.00273	0.00331	0.00407	0.00506	0.00623	0.00787
in methyl acetate	0.00124	0.00153	0.0018	0.00219	0.00264	0.00329	0.00397	0.00489
in n-butanol	0.00144	0.00183	0.00225	0.00291	0.00368	0.00479	0.00621	0.00792
in n-butyl acetate	0.00112	0.00129	0.00159	0.00189	0.00241	0.00282	0.00341	0.00386
in n-propanol	0.00111	0.00149	0.00199	0.00248	0.0031	0.00409	0.00532	0.00683
in n-propyl acetate	0.00116	0.00147	0.00166	0.00202	0.00242	0.00288	0.00357	0.00424
in sec-butanol	0.00187	0.00244	0.00286	0.00361	0.00464	0.00604	0.00769	0.00987
